Experimental data: patent US10266569B2 (priority 2014, dated 2019)
“Also recorded” adds a separate entry of the source.

Legend:
CDV = format: cell-based, canine distemper virus
NiV N = NiV N (Nipah virus, UniProt Q9IK92); format: cell-based
[1] = tested on: NiV (Malaysian isolate UMMC1); format: cell-based, Nipah virus
[2] = tested on: NiV (Malaysian isolate UMMC1); format: cell-based, Nipah virus; remark: listed apart in the source

Sequence of NiV N (Q9IK92 whole entry, looked up): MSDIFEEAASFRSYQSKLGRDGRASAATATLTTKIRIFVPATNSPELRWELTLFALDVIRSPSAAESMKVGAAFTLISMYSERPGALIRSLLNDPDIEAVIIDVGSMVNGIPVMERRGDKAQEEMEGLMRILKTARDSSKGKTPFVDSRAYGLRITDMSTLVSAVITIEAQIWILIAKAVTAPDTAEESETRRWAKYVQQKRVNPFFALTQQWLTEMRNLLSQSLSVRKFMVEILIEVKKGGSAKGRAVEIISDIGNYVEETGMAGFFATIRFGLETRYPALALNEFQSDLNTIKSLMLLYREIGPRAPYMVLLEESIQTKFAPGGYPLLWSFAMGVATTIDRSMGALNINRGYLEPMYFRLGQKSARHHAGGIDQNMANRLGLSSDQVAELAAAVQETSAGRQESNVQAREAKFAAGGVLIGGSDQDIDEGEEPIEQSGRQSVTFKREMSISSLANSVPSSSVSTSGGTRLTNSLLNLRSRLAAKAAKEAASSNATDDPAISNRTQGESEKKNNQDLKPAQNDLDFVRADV

Sequence | dose dependence of inhibition of CDV replication (CDV) | colocalization with N in the cell (NiV N) | maintenance of N in a soluble form (NiV N) | inhibition of CDV viral growth (virus titer in culture supernatant) (CDV) | inhibition of NiV viral growth (virus titer in culture supernatant) [1] | inhibition of NiV viral growth (viral titer in culture supernatant) [2] | syncytia formation in NiV-infected cells [2]
MAEEQAYHVSKGLECLKALRENPPDIEEIQEVSSLRDQTC [P40-CDV] | dose-dependant |  |  |  |  |  | 
MDKLELVNDGLNIIDFIQKNQKEIQKTYGRSSIQQPSIKD [P40] | dose-dependant | colocalization of N with P40 | sufficient to maintain N in a soluble form | inhibit viral growth | inhibit viral growth | significantly inhibits viral growth in a dose-dependent manner; also recorded: inhibited viral replication; also recorded: able to inhibit the replication of Nipah virus | abolishes syncytia formation
